Series [1] is described as follows: preclinical in vitro tests (genotoxicity). The following applies: classification also based on chemical structure.
Series [2] can be described thus: storage stability of tolperisone end product (4-MMPPO formation, HPLC-MS/MS). Type of series: physicochemical. The method, then: Prior art according to AT PS 413 539: The tolperisone crude product is dissolved under reflux for 30 minutes in an 85:15 mixture that consists of 2-butanone (MEK) and isopropanol. The temperature is lowered to 80° C., and the solution is hot-filtered. The solution is allowed to cool to 5° C., and it is stirred for 7 hours. The crystalline precipitate that is obtained is filtered off, washed with 2-butanone, and then dried in a vacuum at 45-85° C.
A proportion of 500 ppm of 4-MMPPO is detected by analysis using HPLC-MS/MS.
The tolperisone crude product is dissolved under reflux for 12 hours in an 85:15 mixture that consists of 2-butanone (MEK) and isopropanol and with the addition of 1% HCl and 5% citric acid. The temperature is lowered to 80° C., and the solution is hot-filtered. The solution is allowed to cool to 5° C., and it is stirred for 7 hours at 5° C. The crystalline precipitate is filtered off, washed with MEK, and then dried in a vacuum at 45° to 85° C.
By analysis using HPLC-MS/MS, a proportion of 4-MMPPO in a range of 0 ppm (not detectable) to 10 ppm is determined.

These results are taken from patent US8372979B2, “Process for the production of high-purity 2,4′-dimethyl-3-piperidino-propiophenone (tolperisone), pharmaceutical compositions that contain the latter, as well as active ingredient formulations that contain tolperisone” (SANOCHEMIA Pharmazeutika AG, priority 2007, dated 2013).

Structures are written as SMILES. “Also recorded” adds a separate entry of the source.

`C=C(C)C(=O)c1ccc(C)cc1` [4-MMPPO, 2-methyl-1-(4-methylphenyl)-propenone]: the “genotoxic or carcinogenic actions” value in series [1] is “genotoxic or carcinogenic actions have been detected; also recorded: potentially genotoxic”. Take `Cc1ccc(C(=O)C(C)CN2CCCCC2)cc1` (stereo not drawn) [tolperisone, 2,4′-dimethyl-3-piperidino-propiophenone]: the “stabilizing effect of citric acid present in end product” value in series [2] (Variant IIIa: recrystallization in MEK/IPA + 1% HCl + 5% citric acid) is reported as “a stabilizing effect could be detected”. For the same compound, the “4-MMPPO values with extended storage” value in series [2] (end product of prior-art process AT 413 539 (recrystallization MEK/IPA, no acid)) is listed as “additional increasing 4-MMPPO values”.
